Data taken from patent US20240124467A1, “FUSED PYRIMIDINE COMPOUNDS AS INHIBITORS OF MENIN-MLL INTERACTION” (Biomea Fusion, Inc., priority 2020, published 2024).
Where two headings read alike, the source gives them in different places.

What was measured:
Assay type in all cases: cell-based
K-562 = assay: Cell proliferation inhibition (CellTiter-Glo), K-562 cells; details: Homo sapiens, K-562 (BCR-ABL)
Description: (§1) The present example evaluates the ability of compounds described herein, inhibitors of Menin/MLL interaction, to inhibit cell proliferation. The proliferation inhibitory effect was investigated in human MLL-leukemia cells selected on the bases of MLL fusion proteins and listed in the table below.
(§2) ATP is present in all metabolically active cells and is considered as a marker for cell viability and proliferation. The metabolic cell activity was determined using the CellTiter-Glo kit from Promega, an ATP monitoring system based on the production of luminescence by the reaction of ATP with added UltraGlo® recombinant luciferase (Kawano et al., 2016, PLOS One, 8:11(7):e0158888), according to the supplier's experimental recommendations. The assay is based on a 96 well plate format. All experiments were carried out in duplicate in one test occasion.
(§3) Test items were dissolved at 20 mM in DMSO with purity ≥99.9% (Sigma catalog no. D8418) and stored at −20° C. Cells were maintained in RPMI-1640 medium (Invitrogen catalog no. 618700) supplemented with 10% of Heat Inactivated FBS (Invitrogen catalog no. 10500) and 1% Pen-Strep (Invitrogen catalog no. 15140) and cultured at 37° C. in a humidified incubator with 5% CO2. Cell lines were grown in suspension and the cell density was maintained in a range of 5×10^4-1×10^6 viable cells/ml where possible. Cells were pelleted at 130 g×5 min.
(§4) Serial dilutions of compounds 1 to 3 in DMSO 100% were prepared starting from a 2.5 mM solutions (prepared by diluting 1:8 the 20 mM stock solution) to generate a 7 point concentration response curve (CRC). Seven concentrations of test compounds (e.g., 5.00×10^−6-1.67×10^−6-5.56×10^−7-1.85×10^−7-6.17×10^−8-2.06×10^−8-6.86×10^−9 M) were assessed in duplicate in an individual test occasion in parallel in the selected cell lines. KO-539 was used as a reference compound and tested in duplicate at seven similar concentrations. 100% of proliferation was represented by the untreated cells (0.2% DMSO).
(§5) Cell proliferation inhibition was monitored at both the following end points: Day 4 (T4) and Day 7 (T7). For the appropriate cell density during the exponential cell growth and re-supply with fresh compound solution at T4, cells were diluted (1:4) with fresh medium containing the compound concentration (1×).
(§6) For each plate to test, one 0.4 μL copy plate and four 0.3 μL copy plates were stamped into 96-well plates not treated for cell adhesion (Sarstedt—cat. no. 82.1581.001) by acoustic liquid handling (Echo) at a concentration which was 500 fold the final assay concentration. Stamped plates were stored at −20° C.
(§7) On Day 0, the day of the experiment cell line suspensions were counted by Cell Viability Analyser, Vi-CELL (Beckman Coulter AY15292), and diluted with fresh medium to obtain the following cell densities: K-562 500 c/ml, MOLM-13 1,000 c/ml, MV4-11 10,000 c/ml, OCI-AML-3 500 c/ml, and U-937 500-1,000 c/ml. 200 μL/well and 150 μL/well of cell suspension were added into the 0.4 μL/well and 0.3 μL/well compound plates, respectively. Cell plate containing 200 μL/well suspension were incubated at 37° C. in a humidified incubator with 5% CO2. From each well of the 150 μL/well cell assay plate, 100 μL were harvested and transferred into a 96-well Optiplate (Perkin Elmer, cat. no. 6005290). Cell viability was measured as described below.
(§8) On Day 4, 150p/well of fresh medium was added into a new 0.3 μL/well copy compound plates. From each well of the 200 μL/well cell assay plate, 100 μL was sampled for the cell viability measurement as described below. 50p was harvested and added to the 150p/well compound plate prepared as described in the first point to dilute 1:4 the cell suspension. The cell assay plate diluted and containing 200 μL/well suspension was incubated at 37° C. in a humidified incubator with 5% CO2.
(§9) On Day 4, 150p/well of fresh medium was added into a new 0.3 μL/well copy compound plates. […]

MOLM-13 = assay: Cell proliferation inhibition (CellTiter-Glo), MOLM-13 cells; details: Homo sapiens, MOLM-13 (MLL-AF9)
Description: as §1, §2, §3, §4, §5, §6, §7, §8, §9

MV4-11 = assay: Cell proliferation inhibition (CellTiter-Glo), MV4-11 cells; details: Homo sapiens, MV4-11 (MLL-AF4)
Description: as §1, §2, §3, §4, §5, §6, §7, §8, §9

[1] = K562, 96 h, Day 4, read-out: K-562 IC50 μM (Day 4)
[2] = 96 h, Day 4, read-out: MOLM-13 Day IC50 μM (Day 4)*
[3] = 96 h, Day 4, read-out: MV-4:11 IC50 μM (Day 4)*
[4] = K562, 168 h, Day 7, read-out: K-562 IC50 μM (Day 7)*
[5] = 168 h, Day 7, read-out: MOLM-13 Day IC50 μM (Day 7)*
[6] = 168 h, Day 7, read-out: MV-4:11 IC50 μM (Day 7)*

IC50 (K-562; [1])	IC50 (MOLM-13; [2])	IC50 (MV4-11; [3])	IC50 (K-562; [4])	IC50 (MOLM-13; [5])	IC50 (MV4-11; [6])	SMILES
0.074 µM	0.069 µM	0.051 µM	–	–	–	C=CS(=O)(=O)N[C@@H]1CCCN(Cc2ccnc(C(=O)Nc3ccc(-c4cc5c(N6CCOCC6)ncnc5[nH]4)cc3)c2)C1 [Compound B0700-333, (R)—N-(4-(4-morpholino-7H-pyrrolo[2,3-d]pyrimidin-6-yl)phenyl)-4-((3-(vinylsulfonamido)piperidin-1-yl)methyl)picolinamide]
> 10 µM	1.23 µM	1.6 µM	–	–	–	Cc1cc(C)n2c1C=C1C=CC(CCC(=O)NCCCCN(C)C/C=C/C(=O)Nc3ccc(CC(=O)Nc4ccc(-c5cc6c(N7CCOCC7)ncnc6[nH]5)cc4)cc3)=[N+]1[B-]2(F)F [Compound B0700-504]
2.96 µM	0.202 µM	0.398 µM	3.47 µM	0.349 µM	0.43 µM	C=CC(=O)N[C@@H]1CCC[C@H](Nc2ccnc(C(=O)Nc3ccc(-c4cc5c(N6CCOCC6)ncnc5[nH]4)cc3)c2)C1 [Compound B0700-607, 4-(((1S,3R)-3-acrylamidocyclohexyl)amino)-N-(4-(4-morpholino-7H-pyrrolo[2,3-d]pyrimidin-6-yl)phenyl)picolinamide]
0.744 µM	0.154 µM	0.218 µM	0.636 µM	0.157 µM	0.17 µM	C=CC(=O)N1CCC(Nc2ccnc(C(=O)Nc3ccc(-c4cc5c(N6CCOCC6)ncnc5[nH]4)cc3)c2)CC1 [Compound B0700-616, 4-((1-acryloylpiperidin-4-yl)amino)-N-(4-(4-morpholino-7H-pyrrolo[2,3-d]pyrimidin-6-yl)phenyl)picolinamide]
> 10 µM	> 10 µM	> 10 µM	–	–	–	C=CC(=O)N[C@@H]1CCCN(Cc2cccc(S(=O)(=O)Nc3ccc(-c4nc5c(N6CCOCC6)ncnc5s4)nc3)c2)C1 [Compound B0700-534, (R)—N-(1-(3-(N-(6-(7-morpholinothiazolo[5,4-d]pyrimidin-2-yl)pyridin-3-yl)sulfamoyl)benzyl)piperidin-3-yl)acrylamide]
0.997 µM	0.271 µM	–	–	–	–	[2H]C([2H])=C([2H])C(=O)N[C@@H]1CCCN(Cc2ccnc(C(=O)Nc3ccc(-c4cc5c(N6CCOCC6)ncnc5[nH]4)cc3)c2)C1 [Compound B0700-557, (R)-4-((3-(acrylamido-2,3,3-d3)piperidin-1-yl)methyl)-N-(4-(4-morpholino-7H-pyrrolo[2,3-d]pyrimidin-6-yl)phenyl)picolinamide]
2.89 µM	0.607 µM	0.371 µM	–	–	–	C=CC(=O)N[C@@H]1CCCN(Cc2ccnc(C(=O)NC3CC=C(c4cc5c(N6CCOCC6)ncnc5[nH]4)CC3)c2)C1 (stereo partly shown) [Compound B0700-527]
> 10 µM	1.03 µM	0.274 µM	–	–	–	C=CC(=O)N[C@H]1CCCN(c2cccc(C(C)S(=O)(=O)Nc3ccc(-c4cc5c(N6CCOCC6)ncnc5[nH]4)cc3)c2)C1 (stereo partly shown) [Compound B0700-565]
> 10 µM	1.07 µM	0.84 µM	–	–	–	C=CC(=O)N[C@@H]1CCCN(c2cccc(C(C)S(=O)(=O)Nc3ccc(-c4cc5c(N6CCOCC6)ncnc5[nH]4)cc3)c2)C1 (stereo partly shown) [Compound B0700-545]

Further lines, the molecule ahead of its results:

SMILES	IC50 (K-562; [1])	IC50 (MOLM-13; [2])	IC50 (MV4-11; [3])	IC50 (K-562; [4])	IC50 (MOLM-13; [5])	IC50 (MV4-11; [6])
C=CC(=O)N[C@@H]1CCCN(Cc2ccc(C)c(C(=O)Nc3ccc(-c4cc5c(N6CCOCC6)ncnc5[nH]4)cc3)c2)C1 [Compound B0700-531]	0.805 µM	0.311 µM	0.345 µM	–	–	–
C=CC(=O)N1CCC(N2CCC(S(=O)(=O)Nc3ccc(-c4cc5c(N6CCOCC6)ncnc5[nH]4)cc3)CC2)CC1 [Compound B0700-610, 1′-acryloyl-N-(4-(4-morpholino-7H-pyrrolo[2,3-d]pyrimidin-6-yl)phenyl)-[1,4′-bipiperidine]-4-sulfonamide]	> 10 µM	0.806 µM	0.487 µM	> 10 µM	0.458 µM	0.29 µM
C=CC(=O)N[C@@H]1CCCN(c2cccc(C(C)S(=O)(=O)Nc3ccc(-c4cc5c(N6CCOCC6)ncnc5[nH]4)cc3F)c2)C1 (stereo partly drawn) [Compound B0700-559, N-((3R)-1-(3-(1-(N-(2-fluoro-4-(4-morpholino-7H-pyrrolo[2,3-d]pyrimidin-6-yl)phenyl)sulfamoyl)ethyl)phenyl)piperidin-3-yl)acrylamide]	> 10 µM	3.91 µM	1.56 µM	–	–	–
C=CC(=O)N[C@@H]1CCCN(Cc2ccnc(C(=O)NC3CCN(c4nc5c(N6CCOCC6)ncnc5o4)CC3)c2)C1 [Compound B0700-518]	5.3 µM	> 10 µM	> 10 µM	–	–	–
C=CS(=O)(=O)N[C@H]1CCN(c2cccc(CS(=O)(=O)Nc3ccc(-c4cc5c(N6CCOCC6)ncnc5[nH]4)cc3)c2)C1 [Compound B0700-541]	2.06 µM	0.193 µM	0.09 µM	–	–	–
C=CC(=O)N[C@@H]1CCCN(Cc2ccnc(C(C)Nc3ccc(-c4cc5c(N6CCOCC6)ncnc5[nH]4)cc3)c2)C1 (stereo partly drawn) [Compound B0700-514, N-((3R)-1-((2-(1-((4-(4-morpholino-7H-pyrrolo[2,3-d]pyrimidin-6-yl)phenyl)amino)ethyl)pyridin-4-yl)methyl)piperidin-3-yl)acrylamide]	> 10 µM	0.631 µM	0.651 µM	> 10 µM	0.546 µM	0.54 µM
C=CC(=O)N1CC(N2CCCC(CNS(=O)(=O)N3CCN(c4nc5c(N6CCOCC6)ncnc5[nH]4)CC3)C2)C1 (stereo not shown) [Compound B0700-512]	5.18 µM	> 10 µM	> 10 µM	–	–	–
C=CC(=O)N1CCC(N2CCN(C(=O)Nc3ccc(-c4cc5c(N6CCOCC6)ncnc5[nH]4)cc3)CC2)CC1 [Compound B0700-613, 4-(1-acryloylpiperidin-4-yl)-N-(4-(4-morpholino-7H-pyrrolo[2,3-d]pyrimidin-6-yl)phenyl)piperazine-1-carboxamide]	6.04 µM	0.632 µM	0.495 µM	11.2 µM	0.477 µM	0.47 µM
C=CC(=O)N[C@@H]1CCCN(Cc2ccnc(C(=O)NC3CCN(c4nc5c(N6CCOCC6)ncnc5s4)CC3)c2)C1 [Compound B0700-310, (R)-4-((3-acrylamidopiperidin-1-yl)methyl)-N-(1-(7-morpholinothiazolo[5,4-d]pyrimidin-2-yl)piperidin-4-yl)picolinamide]	2.89 µM	> 10 µM	8.92 µM	–	–	–
C=CC(=O)N[C@@H]1CCCN(C(=O)c2ccnc(CNc3ccc(-c4cc5c(N6CCOCC6)ncnc5[nH]4)cc3)c2)C1 [Compound B0700-561, (R)—N-(1-(2-(((4-(4-morpholino-7H-pyrrolo[2,3-d]pyrimidin-6-yl)phenyl)amino)methyl)isonicotinoyl)piperidin-3-yl)acrylamide]	> 10 µM	1.63 µM	0.304 µM	–	–	–
C=CC(=O)N[C@H]1CCCN(Cc2ccnc(C(=O)Nc3ccc(-c4cc5c(N6CCOCC6)ncnc5[nH]4)cc3)c2)C1 [Compound B0700-704]	0.74 µM	0.35 µM	–	–	–	–
